Test results published in patent US20250145633A1, “SUBSTITUTED FURANOPYRIMIDINE COMPOUNDS AS PDE1 INHIBITORS” (Dart NeuroScience, LLC, priority 2017, published 2025).

What follows are molecules tested against human PDE1B enzyme (Homo sapiens (Human), UniProt Q01064) (assay: IMAP TR-FRET PDE1B enzymatic assay). Conditions: negative log of half-maximal molar inhibitory concentration; 200 nM FAM-cAMP; values given as bins.
Format: biochemical
Method in brief: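 Full-length GST-tagged human PDE1B (250 pg/well) in IMAP BSA buffer with 10 U/ml calmodulin and 2.5 mM CaCl2; compound pre-incubated 5 min at room temperature, then 200 nM (final) FAM-cAMP for 30 min. IMAP binding reagent/Tb added, 1 h; TR-FRET 520/490 ratio read. IC50 from sigmoidal dose-response fit.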

`Cc1ccc(N2CCN(C(=O)c3c(C)oc4ncnc(NC5(C)CC5)c34)CC2)nc1` [Example 44, 6-Methyl-N-(1-methylcyclopropyl)-5-[4-(5-methylpyridin-2-yl)piperazine-1-carbonyl]furo[2,3-d]pyrimidin-4-amine] was tested, and the “PDE1b (pIC50)” value was greater than 8.
With `Cc1oc2ncnc(NC3(C)CC3)c2c1C(=O)N1CC(O)(c2ccc(F)cc2)C1` [Example 101, 3-(4-Fluorophenyl)-1-{6-methyl-4-[(1-methylcyclopropyl)amino]furo[2,3-d]pyrimidine-5-carbonyl}azetidin-3-ol] the “PDE1b (pIC50)” value was greater than 8.
`COc1ccc(CNC(=O)c2c(C)oc3ncnc(NC4(C)CC4)c23)cc1F` [Example 483, N-[(3-Fluoro-4-methoxyphenyl)methyl]-6-methyl-4-[(1-methylcyclopropyl)amino]furo[2,3-d]pyrimidine-5-carboxamide] was tested, and the “PDE1b (pIC50)” value was greater than 8.
In the case of `Cc1oc2ncnc(NC3(C)CC3)c2c1C(=O)NCCOc1ccccc1F` [Example 559, N-[2-(2-Fluorophenoxy)ethyl]-6-methyl-4-[(1-methylcyclopropyl)amino]furo[2,3-d]pyrimidine-5-carboxamide], the “PDE1b (pIC50)” value was greater than 8.
In the case of `Cc1ncc(CNC(=O)c2c(C)oc3ncnc(NC4(C)CC4)c23)s1` [Example 743, 6-Methyl-N-[(2-methyl-1,3-thiazol-5-yl)methyl]-4-[(1-methylcyclopropyl)amino]furo[2,3-d]pyrimidine-5-carboxamide], the “PDE1b (pIC50)” value was greater than 8.
In the case of `Cc1oc2ncnc(NC3(C)CC3)c2c1C(=O)N1CCC(c2cccc(F)n2)C1` (stereo not drawn) [Example 532, 5-[3-(6-Fluoropyridin-2-yl)pyrrolidine-1-carbonyl]-6-methyl-N-(1-methylcyclopropyl)furo[2,3-d]pyrimidin-4-amine], the “PDE1b (pIC50)” value was greater than 8.
With `Cc1oc2ncnc(NC3(C)CC3)c2c1C(=O)NC(C)c1ccccc1` (stereo not drawn) [Example 194, 6-Methyl-4-[(1-methylcyclopropyl)amino]-N-(1-phenylethyl)furo[2,3-d]pyrimidine-5-carboxamide] the “PDE1b (pIC50)” value was greater than 8.

Same assay, conditions: negative log of half-maximal molar inhibitory concentration; 200 nM FAM-cAMP; values given as bins; read-out: PDE1b (pIC50) (converted)

Compared with `Cc1noc(NC(=O)c2c(C)oc3ncnc(NC4(C)CC4)c23)n1` [Example 452, 6-Methyl-N-(3-methyl-1 2 4-oxadiazol-5-yl)-4-[(1-methylcyclopropyl)amino]furo[2,3-d]pyrimidine-5-carboxamide], `Cc1oc2ncnc(NC3(C)CC3)c2c1C(=O)Nc1ccnn1C` [Example 174, 6-Methyl-N-(1-methyl-1H-pyrazol-5-yl)-4-[(1-methylcyclopropyl)amino]furo[2,3-d]pyrimidine-5-carboxamide] is higher in IC50: 10 to 100 nM for the first, 100 to 1000 nM for the second.

First: Cc1oc2ncnc(NC3(C)CC3)c2c1C(=O)N1Cc2cc(C3CCOCC3)cnc2C1 [Example 748, 6-Methyl-N-(1-methylcyclopropyl)-5-[3-(oxan-4-yl)-5H,6H,7H-pyrrolo[3,4-b]pyridine-6-carbonyl]furo[2,3-d]pyrimidin-4-amine]
Second: COc1nc(C2CC2)nc2c1CN(C(=O)c1c(C)oc3ncnc(NC4(C)CC4)c13)C2 [Example 687, 5-{2-Cyclopropyl-4-methoxy-5H,6H,7H-pyrrolo[3,4-d]pyrimidine-6-carbonyl}-6-methyl-N-(1-methylcyclopropyl)furo[2,3-d]pyrimidin-4-amine]
The IC50 of the first is higher: 100 to 1000 nM for the first, 10 to 100 nM for the second.

Compared with `COCCNC(=O)c1c(C)oc2ncnc(NC3(C)CC3)c12` [Example 95, N-(2-Methoxyethyl)-6-methyl-4-[(1-methylcyclopropyl)amino]furo[2,3-d]pyrimidine-5-carboxamide], `Cc1oc2ncnc(NC3(C)CC3)c2c1C(=O)NCC(C)C` [Example 137, 6-Methyl-4-[(1-methylcyclopropyl)amino]-N-(2-methylpropyl)furo[2,3-d]pyrimidine-5-carboxamide] is lower in IC50: 100 to 1000 nM for the first, 10 to 100 nM for the second.

First: Cc1oc2ncnc(NC3(C)CC3)c2c1C(=O)N(C)c1cnn(C)c1 [Example 469, N,6-Dimethyl-N-(1-methyl-1H-pyrazol-4-yl)-4-[(1-methylcyclopropyl)amino]furo[2,3-d]pyrimidine-5-carboxamide]
Second: Cc1cnc(CN(C)C(=O)c2c(C)oc3ncnc(NC4(C)CC4)c23)s1 [Example 702, N,6-Dimethyl-N-[(5-methyl-1,3-thiazol-2-yl)methyl]-4-[(1-methylcyclopropyl)amino]furo[2,3-d]pyrimidine-5-carboxamide]
The IC50 of the first is higher: 100 to 1000 nM for the first, 10 to 100 nM for the second.

Compared with `Cc1oc2ncnc(NC3(C)CC3)c2c1C(=O)NC1(c2ccccn2)CC1` [Example 79, 6-Methyl-4-[(1-methylcyclopropyl)amino]-N-[1-(pyridin-2-yl)cyclopropyl]furo[2,3-d]pyrimidine-5-carboxamide], `Cc1oc2ncnc(NC3(C)CC3)c2c1C(=O)N1CCc2ncccc2C1` [Example 631, 6-Methyl-N-(1-methylcyclopropyl)-5-(5,6,7,8-tetrahydro-1,6-naphthyridine-6-carbonyl)furo[2,3-d]pyrimidin-4-amine] is higher in IC50: 10 to 100 nM for the first, 100 to 1000 nM for the second.

`Cc1oc2ncnc(NC3(C)CC3)c2c1C(=O)NCc1cncs1` [Example 74, 6-Methyl-4-[(1-methylcyclopropyl)amino]-N-(1,3-thiazol-5-ylmethyl)furo[2,3-d]pyrimidine-5-carboxamide] and `Cc1ccc(Cl)c(NC(=O)c2c(C)oc3ncnc(NC4(C)CC4)c23)c1` [Example 256, N-(2-Chloro-5-methylphenyl)-6-methyl-4-[(1-methylcyclopropyl)amino]furo[2,3-d]pyrimidine-5-carboxamide] fall in the same range of IC50: 10 to 100 nM for the first, 10 to 100 nM for the second.

`CCc1ncnc2c1CCN(C(=O)c1c(C)oc3ncnc(NC4(C)CC4)c13)C2` [Example 23, 5-{4-Ethyl-5H,6H,7H,8H-pyrido[3,4-d]pyrimidine-7-carbonyl}-6-methyl-N-(1-methylcyclopropyl)furo[2,3-d]pyrimidin-4-amine] and `C=C(C)c1ncnc2c1CCN(C(=O)c1c(C)oc3ncnc(NC4(C)CC4)c13)C2` [Example 804, 6-Methyl-N-(1-methylcyclopropyl)-5-[4-(prop-1-en-2-yl)-5H,6H,7H,8H-pyrido[3,4-d]pyrimidine-7-carbonyl]furo[2,3-d]pyrimidin-4-amine] fall in the same range of IC50: 10 to 100 nM for the first, 10 to 100 nM for the second.

`Cc1oc2ncnc(NC3(C)CC3)c2c1C(=O)N1CCn2cncc2C1` [Example 640, 5-{5H,6H,7H,8H-Imidazo[1,5-a]pyrazine-7-carbonyl}-6-methyl-N-(1-methylcyclopropyl)furo[2,3-d]pyrimidin-4-amine] and `Cc1oc2ncnc(NC3(C)CC3)c2c1C(=O)N1CCn2c(cnc2C2CC2)C1` [Example 684, 5-{3-Cyclopropyl-5H,6H,7H,8H-imidazo[1,5-a]pyrazine-7-carbonyl}-6-methyl-N-(1-methylcyclopropyl)furo[2,3-d]pyrimidin-4-amine] fall in the same range of IC50: 100 to 1000 nM for the first, 100 to 1000 nM for the second.

`COCC1(Nc2ncnc3c2CCN(C(=O)c2c(C)oc4ncnc(NC5(C)CC5)c24)C3)CC1` [Example 795, 5-(4-{[1-(Methoxymethyl)cyclopropyl]amino}-5H,6H,7H,8H-pyrido[3,4-d]pyrimidine-7-carbonyl)-6-methyl-N-(1-methylcyclopropyl)furo[2,3-d]pyrimidin-4-amine] and `Cc1oc2ncnc(NC3(C)CC3)c2c1C(=O)N1CCc2c(ncnc2N2CC(F)C2)C1` [Example 788, 5-[4-(3-Fluoroazetidin-1-yl)-5H,6H,7H,8H-pyrido[3,4-d]pyrimidine-7-carbonyl]-6-methyl-N-(1-methylcyclopropyl)furo[2,3-d]pyrimidin-4-amine] fall in the same range of IC50: 10 to 100 nM for the first, 10 to 100 nM for the second.

`COc1ccc(CC2(NC(=O)c3c(C)oc4ncnc(NC5(C)CC5)c34)CC2)cc1` [Example 371, N-{1-[(4-Methoxyphenyl)methyl]cyclopropyl}-6-methyl-4-[(1-methylcyclopropyl)amino]furo[2,3-d]pyrimidine-5-carboxamide] and `Cc1oc2ncnc(NC3(C)CC3)c2c1C(=O)Nc1ccc(N2CCOCC2)cc1` [Example 655, 6-Methyl-4-[(1-methylcyclopropyl)amino]-N-[4-(morpholin-4-yl)phenyl]furo[2,3-d]pyrimidine-5-carboxamide] fall in the same range of IC50: 10 to 100 nM for the first, 10 to 100 nM for the second.
